Experimental findings from patent US8895745B2, “Bicyclic heterocyclic compounds as FGFR inhibitors” (Astex Therapeutics Limited, priority 2006, dated 2014) are described below.

Structures can show the parent of a compound that is named as a salt. Bounds are passed on as bounds.

The test system of one assay is LP-1 cell line. Description: Cell-based pERK ELISA method, LP-1 cells. The note with it: Homo sapiens, LP-1, read-out: IC50 less than 1 μM or at least 50% inhibition at a concentration of 1 μM, LP-1 pERK ELISA.
In the case of `CCNC(=O)Nc1cccc(-c2cnc3cc(-c4ccc(CN5CCC5)cc4)ccn23)c1` [Example 82, 1-{3-[7-(4-Azetidin-1-ylmethyl-phenyl)-imidazo[1,2-a]pyridin-3-yl]-phenyl}-3-ethyl-urea], the IC50 was less than 1 µM.
With `O=C(NCC(F)(F)F)Nc1cccc(-c2cnc3cc(-c4ccccc4)ccn23)c1` [Example 149, 1-[3-(7-Phenyl-imidazo[1,2-a]pyridin-3-yl)-phenyl]-3-(2,2,2-trifluoro-ethyl)-urea Hydrochloride], the IC50 is less than 1 µM.
For the molecule `O=C(NCC(F)(F)F)Nc1cccc(-c2cnc3cc(N4CCOCC4)ccn23)c1` [Example 108, 1-[3-(7-Morpholin-4-yl-imidazo[1,2-a]pyridin-3-yl)-phenyl]-3-(2,2,2-trifluoro-ethyl)-urea hydrochloride salt], the IC50 is less than 1 µM.
On to `CCNC(=O)Nc1cccc(-c2cnc3cc(-c4cccc(OCCOC)c4)ccn23)c1` [Example 83, 1-Ethyl-3-(3-{7-[3-(2-methoxy-ethoxy)-phenyl]-imidazo[1,2-a]pyridin-3-yl}-phenyl)-urea], for which the IC50 was less than 1 µM.
Turning to `CC(=O)Nc1cccc(-c2cnc3cc(-c4ccc(F)cc4)ccn23)c1` [Example 7, N-{3-[7-(4-Fluoro-phenyl)-imidazo[1,2-a]pyridin-3-yl]-phenyl}-acetamide], the IC50 was less than 1 µM.
For `CCNC(=O)Nc1cccc(-c2cnn3cc(-c4cnn(C)c4)cnc23)c1` [Example 135, 1-Ethyl-3-{3-[6-(1-methyl-1H-pyrazol-4-yl)-pyrazolo[1,5-a]pyrimidin-3-yl]-phenyl}-urea], the IC50 is less than 1 µM.
In the case of `Cc1cc2ncc(-c3cccc(NC(=O)NCC(F)(F)F)c3)n2cc1Cl` [Example 346, 1-[3-(6-Chloro-7-methyl-imidazo[1,2-a]pyridin-3-yl)-phenyl]-3-(2,2,2-trifluoro-ethyl)-urea], the IC50 was less than 1 µM.
`CCNC(=O)Nc1cccc(-c2cnc3cc(-c4ccc(N5CCNCC5)cc4)ccn23)c1` [Example 57, 1-Ethyl-3-{3-[7-(4-piperazin-1-yl-phenyl)-imidazo[1,2-a]pyridin-3-yl]-phenyl}-urea hydro-chloride salt]: the IC50 was less than 1 µM.
`CC(C)NC(=O)c1cccc(-c2ccn3c(-c4cccc(NC(=O)NCC(F)(F)F)c4)cnc3c2)c1` [Example 267, N-Isopropyl-3-(3-{3-[3-(2,2,2-trifluoro-ethyl)-ureido]-phenyl}-imidazo[1,2-a]pyridin-7-yl)-benzamide]: the IC50 was less than 1 µM.
On the same count and under the same terms, in the case of `O=C(NCC(F)(F)F)Nc1cccc(-c2cnc3cc(-c4ccc(F)nc4)ccn23)c1` [Example 174, 1-{3-[7-(6-Fluoro-pyridin-3-yl)-imidazo[1,2-a]pyridin-3-yl]-phenyl}-3-(2,2,2-trifluoro-ethyl)-urea] it was less than 1 µM; in that of `CCNC(=O)Nc1cccc(-c2cnc3cc(-c4ccc(N5CCCCC5)nc4)ccn23)c1` [Example 58, 1-Ethyl-3-{3-[7-(3,4,5,6-tetrahydro-2H-[1,2′]bipyridinyl-5′-yl)-imidazo[1,2-a]pyridin-3-yl]-phenyl}-urea hydro-chloride salt], less than 1 µM; in that of `Cn1cc(-c2cnc3c(-c4cncc(NC(=O)NCC(F)(F)F)c4)cnn3c2)cn1` [Example 349, 1-{5-[6-(1-Methyl-1H-pyrazol-4-yl)-pyrazolo[1,5-a]pyrimidin-3-yl]-pyridin-3-yl}-3-(2,2,2-trifluoro-ethyl)-urea], less than 1 µM.
As for `CC(NC(=O)Nc1cccc(-c2cnc3cc(-c4ccc(F)cc4)ccn23)c1)C(F)(F)F` (centres unmarked) [Example 246, 1-{3-[7-(4-Fluoro-phenyl)-imidazo[1,2-a]pyridin-3-yl]-phenyl}-3-(2,2,2-trifluoro-1-methyl-ethyl)-urea], the IC50 was less than 1 µM.

The same assay, now with this note: Homo sapiens, LP-1, read-out: LP-1 pERK ELISA (μM).
In the case of `Cc1nsc(-c2ccn3c(-c4cccc(NC(=O)NCC(F)(F)F)c4)cnc3c2)n1` [Example 399, 1-{3-[7-(3-Methyl-[1,2,4]thiadiazol-5-yl)-imidazo[1,2-a]pyridin-3-yl]-phenyl}-3-(2,2,2-trifluoro-ethyl)-urea], the IC50 worked out at 0.022 µM.
